Results published in PubChem BioAssay AID1963448 (Molecular Pharmacology Branch, DTP, NCI, 2024).
“And” between values parts separate entries of the source, which are not always exact repeats. Equal entries are not always repeated.

System: 616215-338-R-J1-PDC complex spheroid growth, % test/control
Experiment: Anticancer human tumor 616215-338-R-J1-PDC patient-derived colon adenocarcinoma cell line growth inhibition [Asc]
Conditions: for IC50: curve of first compound; for viability, T/C: stronger effect = lower value; active = viability on the fitted dose curve at most 10% of control; inactive = the rest
Summary of the method: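 Concentration series start at each agent's clinical Cmax, or at 10 microM when none is established, and drop in half-log steps; agents are applied alone or together to complex spheroids built with HUVEC and hMSC.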

[1] = second compound 0.1 µM, first compound 0.00949 µM
[2] = second compound 0.1 µM, first compound 0.03 µM
[3] = second compound 0.1 µM, first compound 0.0949 µM
[4] = second compound 0.1 µM, first compound 0.3 µM
[5] = second compound 0.1 µM, first compound 0.949 µM
[6] = second compound 0.1 µM, first compound 3 µM
[7] = second compound 0.316 µM, first compound 0.00949 µM
[8] = second compound 0.316 µM, first compound 0.03 µM
[9] = second compound 0.316 µM, first compound 0.0949 µM
[10] = second compound 0.316 µM, first compound 0.3 µM
[11] = second compound 0.316 µM, first compound 0.949 µM
[12] = second compound 0.316 µM, first compound 3 µM
[13] = second compound 1 µM, first compound 0.00949 µM
[14] = second compound 1 µM, first compound 0.03 µM
[15] = second compound 1 µM, first compound 0.0949 µM
[16] = second compound 1 µM, first compound 0.3 µM
[17] = second compound 1 µM, first compound 0.949 µM
[18] = second compound 1 µM, first compound 3 µM
[19] = second compound 3.16 µM, first compound 0.00949 µM
[20] = second compound 3.16 µM, first compound 0.03 µM
[21] = second compound 3.16 µM, first compound 0.0949 µM
[22] = second compound 3.16 µM, first compound 0.3 µM
[23] = second compound 3.16 µM, first compound 0.949 µM
[24] = second compound 3.16 µM, first compound 3 µM
[25] = second compound 10 µM, first compound 0.00949 µM
[26] = second compound 10 µM, first compound 0.03 µM
[27] = second compound 10 µM, first compound 0.0949 µM
[28] = second compound 10 µM, first compound 0.3 µM
[29] = second compound 10 µM, first compound 0.949 µM
[30] = second compound 10 µM, first compound 3 µM
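Also: spheroids exposed to agents for seven days before readout.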
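For viability, T/C in this document: 100% = DMSO vehicle control viability.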

Cc1nc(N2CCC3(CC2)COC(C)C3N)c(CO)nc1Sc1ccnc(N)c1Cl (stereo not given) + Cc1c(S(C)(=O)=O)c(-c2cc(F)cc(N3CCN(c4ccc(NS(=O)(=O)c5ccc(NC(CCN6CCC(C(=O)OCCCP(=O)(O)O)CC6)CSc6ccccc6)c(S(=O)(=O)C(F)(F)F)c5)cc4)CC3)c2)c(-c2ccc(Cl)cc2)n1C(C)C
active: viability, T/C [30] 6.63%
> 3000 nM: IC50 (second compound 0.1 µM) | IC50 (second compound 0.316 µM) | IC50 (second compound 1 µM)
< 9.49 nM: IC50 (second compound 3.16 µM) | IC50 (second compound 10 µM)
inactive: viability, T/C [1] 97.8% | viability, T/C [2] 102% | viability, T/C [3] 100% | viability, T/C [4] 95.9% | viability, T/C [5] 84.5% | viability, T/C [6] 76.7% | viability, T/C [7] 96.7% | viability, T/C [8] 92.8% | viability, T/C [9] 94.5% | viability, T/C [10] 94.9% | viability, T/C [11] 76.6% | viability, T/C [12] 71.3% | viability, T/C [13] 68% | viability, T/C [14] 67.8% | viability, T/C [15] 68.9% | viability, T/C [16] 66.7% | viability, T/C [17] 61.7% | viability, T/C [18] 55.6% | viability, T/C [19] 38.2% | viability, T/C [20] 38.4% | viability, T/C [21] 34.2% | viability, T/C [22] 36.8% | viability, T/C [23] 25.9% | viability, T/C [24] 21.9% | viability, T/C [25] 29.4% | viability, T/C [26] 25.6% | viability, T/C [27] 30.2% | viability, T/C [28] 21.1% | viability, T/C [29] 9.17%

C=C(F)C(=O)N1CCN(c2nc(OCC3CCCN3C)nc3c2CCN(c2cccc4cccc(Cl)c24)C3)CC1CC#N (stereo not given)
inactive: viability, T/C (compound 0.0316 µM) 75.3% and 90.8% and 99.4% | viability, T/C (compound 0.1 µM) 72.6% and 95.6% and 102% | viability, T/C (compound 0.316 µM) 59.3% and 97.8% and 100% | viability, T/C (compound 1 µM) 38.8% and 98.2% and 107%
active: viability, T/C (compound 10 µM) 0.82% and 0.6% and 0.47%

CNC(C)C(=O)NC1CN(S(=O)(=O)c2cccc(S(=O)(=O)N3CCC4CCC(C(=O)NC(c5ccccc5)c5ccccc5)N4C(=O)C(NC(=O)C(C)NC)C3)c2)CCC2CCC(C(=O)NC(c3ccccc3)c3ccccc3)N2C1=O (stereo not given) + Cc1c(S(C)(=O)=O)c(-c2cc(F)cc(N3CCN(c4ccc(NS(=O)(=O)c5ccc(NC(CCN6CCC(C(=O)OCCCP(=O)(O)O)CC6)CSc6ccccc6)c(S(=O)(=O)C(F)(F)F)c5)cc4)CC3)c2)c(-c2ccc(Cl)cc2)n1C(C)C
inactive: viability, T/C (second compound 0.1 µM, first compound 0.00316 µM) 94% | viability, T/C (second compound 0.1 µM, first compound 0.01 µM) 99.3% | viability, T/C (second compound 0.1 µM, first compound 0.0316 µM) 92.2% | viability, T/C (second compound 0.1 µM, first compound 0.1 µM) 94.8% | viability, T/C (second compound 0.1 µM, first compound 0.316 µM) 100% | viability, T/C (second compound 0.1 µM, first compound 1 µM) 97.5% | viability, T/C (second compound 0.316 µM, first compound 0.00316 µM) 96.8% | viability, T/C (second compound 0.316 µM, first compound 0.01 µM) 97.4% | viability, T/C (second compound 0.316 µM, first compound 0.0316 µM) 92% | viability, T/C (second compound 0.316 µM, first compound 0.1 µM) 97% | viability, T/C (second compound 0.316 µM, first compound 0.316 µM) 87.9% | viability, T/C (second compound 0.316 µM, first compound 1 µM) 94.7% | viability, T/C (second compound 1 µM, first compound 0.00316 µM) 73.1% | viability, T/C (second compound 1 µM, first compound 0.01 µM) 76% | viability, T/C (second compound 1 µM, first compound 0.0316 µM) 73.2% | viability, T/C (second compound 1 µM, first compound 0.1 µM) 76% | viability, T/C (second compound 1 µM, first compound 0.316 µM) 69.6% | viability, T/C (second compound 1 µM, first compound 1 µM) 68.7% | viability, T/C (second compound 3.16 µM, first compound 0.00316 µM) 45.5% | viability, T/C (second compound 3.16 µM, first compound 0.01 µM) 40% | viability, T/C (second compound 3.16 µM, first compound 0.0316 µM) 40.1% | viability, T/C (second compound 3.16 µM, first compound 0.1 µM) 39.5% | viability, T/C (second compound 3.16 µM, first compound 0.316 µM) 36.2% | viability, T/C (second compound 3.16 µM, first compound 1 µM) 28.6% | viability, T/C (second compound 10 µM, first compound 0.00316 µM) 26.5% | viability, T/C (second compound 10 µM, first compound 0.01 µM) 23.9% | viability, T/C (second compound 10 µM, first compound 0.0316 µM) 27.9% | viability, T/C (second compound 10 µM, first compound 0.1 µM) 26.4% | viability, T/C (second compound 10 µM, first compound 0.316 µM) 22.4% | viability, T/C (second compound 10 µM, first compound 1 µM) 19.1%
> 1000 nM: IC50 (second compound 0.1 µM) | IC50 (second compound 0.316 µM) | IC50 (second compound 1 µM)
< 3.16 nM: IC50 (second compound 3.16 µM) | IC50 (second compound 10 µM)

CCN1C(C(=O)NC23CCC(C(=O)O)(CC2)CC3)C(c2cccc(Cl)c2F)C2(C(=O)Nc3cc(Cl)ccc32)C12CCCCC2 (stereo not given) + Cc1c(S(C)(=O)=O)c(-c2cc(F)cc(N3CCN(c4ccc(NS(=O)(=O)c5ccc(NC(CCN6CCC(C(=O)OCCCP(=O)(O)O)CC6)CSc6ccccc6)c(S(=O)(=O)C(F)(F)F)c5)cc4)CC3)c2)c(-c2ccc(Cl)cc2)n1C(C)C
490 nM: IC50 (second compound 0.1 µM)
11 nM: IC50 (second compound 1 µM)
< 9.49 nM: IC50 (second compound 3.16 µM) | IC50 (second compound 10 µM)
inactive: viability, T/C [1] 92.5% | viability, T/C [2] 101% | viability, T/C [3] 77.3% | viability, T/C [4] 50.7% | viability, T/C [5] 43.3% | viability, T/C [7] 89.4% | viability, T/C [8] 81.1% | viability, T/C [9] 51.6% | viability, T/C [10] 34.3% | viability, T/C [13] 53.2% | viability, T/C [14] 29.8% | viability, T/C [15] 17.1% | viability, T/C [19] 20.3%
active: viability, T/C [6] 2.3% | viability, T/C [11] 3.82% | viability, T/C [12] 0.48% | viability, T/C [16] 7.2% | viability, T/C [17] 2.56% | viability, T/C [18] 0.18% | viability, T/C [20] 5.05% | viability, T/C [21] 1.2% | viability, T/C [22] 0.74% | viability, T/C [23] 0.06% | viability, T/C [24] 0.2% | viability, T/C [25] 4.94% | viability, T/C [26] 1.17% | viability, T/C [27] 0.43% | viability, T/C [28] 0.5% | viability, T/C [29] 1.65% | viability, T/C [30] 1.41%
123 nM: IC50 (second compound 0.316 µM)
